{"source": "ChEMBL document CHEMBL1145534", "about": "(2007)", "assay_type_in_all_cases": "functional", "key": {"Streptococcus sanguinis [1]": {"tested_on": "Streptococcus sanguinis", "experiment": "Antimicrobial activity against viridans group Streptococcus sanguinis at 0.12 ug/ml by broth microdilution method"}, "Streptococcus salivarius [2]": {"tested_on": "Streptococcus salivarius", "experiment": "Antimicrobial activity against viridans group Streptococcus salivarius by broth microdilution method"}, "[3]": {"tested_on": "Streptococcus vestibularis", "experiment": "Antimicrobial activity against viridans group Streptococcus vestibularis at 0.5 ug/ml by broth microdilution method"}, "Enterococcus raffinosus": {"tested_on": "Enterococcus raffinosus", "experiment": "Antimicrobial activity against Enterococcus raffinosus at <= 0.06 ug/ml by broth microdilution method"}, "Streptococcus oralis [4]": {"tested_on": "Streptococcus oralis", "experiment": "Antimicrobial activity against viridans group Streptococcus oralis at <= 0.06 ug/ml by broth microdilution method"}, "Rothia mucilaginosa [5]": {"tested_on": "Rothia mucilaginosa", "experiment": "Antimicrobial activity against Rothia mucilaginosa at <= 0.06 ug/ml by broth microdilution method"}, "Listeria monocytogenes [6]": {"tested_on": "Listeria monocytogenes", "experiment": "Antimicrobial activity against Listeria monocytogenes at 0.25 ug/ml by broth microdilution method"}, "Enterococcus avium": {"tested_on": "Enterococcus avium", "experiment": "Antimicrobial activity against Enterococcus avium at 1 ug/ml by broth microdilution method"}, "Streptococcus mitis": {"tested_on": "Streptococcus mitis", "experiment": "Antimicrobial activity against viridans group Streptococcus mitis at 0.12 ug/ml by broth microdilution method"}, "Streptococcus sanguinis [7]": {"tested_on": "Streptococcus sanguinis", "experiment": "Antimicrobial activity against viridans group Streptococcus sanguinis by broth microdilution method"}, "Streptococcus oralis [8]": {"tested_on": "Streptococcus oralis", "experiment": "Antimicrobial activity against viridans group Streptococcus oralis at 0.5 ug/ml by broth microdilution method"}, "[9]": {"tested_on": "Streptococcus parasanguinis", "experiment": "Antimicrobial activity against viridans group Streptococcus parasanguis at <= 0.06 ug/ml by broth microdilution method"}, "Rothia mucilaginosa [10]": {"tested_on": "Rothia mucilaginosa", "experiment": "Antimicrobial activity against Rothia mucilaginosa at 0.5 ug/ml by broth microdilution method"}, "Enterococcus hirae [11]": {"tested_on": "Enterococcus hirae", "experiment": "Antimicrobial activity against Enterococcus hirae at 0.12 ug/ml by broth microdilution method"}, "Streptococcus oralis [12]": {"tested_on": "Streptococcus oralis", "experiment": "Antimicrobial activity against viridans group Streptococcus oralis at 0.25 ug/ml by broth microdilution method"}, "Streptococcus salivarius [13]": {"tested_on": "Streptococcus salivarius", "experiment": "Antimicrobial activity against viridans group Streptococcus salivarius at 0.12 ug/ml by broth microdilution method"}, "Enterococcus gallinarum [14]": {"tested_on": "Enterococcus gallinarum", "experiment": "Antimicrobial activity against Enterococcus gallinarum at <= 0.06 ug/ml by broth microdilution method"}, "[15]": {"tested_on": "Corynebacterium amycolatum", "experiment": "Antimicrobial activity against Corynebacterium amycolatum at 0.12 ug/ml by broth microdilution method"}, "Aerococcus": {"tested_on": "Aerococcus", "experiment": "Antimicrobial activity against Aerococcus spp. at 0.25 ug/ml by broth microdilution method"}, "Streptococcus sanguinis [16]": {"tested_on": "Streptococcus sanguinis", "experiment": "Antimicrobial activity against viridans group Streptococcus sanguinis at <= 0.06 ug/ml by broth microdilution method"}, "Enterococcus hirae [17]": {"tested_on": "Enterococcus hirae", "experiment": "Antimicrobial activity against Enterococcus hirae at 0.5 ug/ml by broth microdilution method"}, "Rothia mucilaginosa [18]": {"tested_on": "Rothia mucilaginosa", "experiment": "Antimicrobial activity against Rothia mucilaginosa at 0.12 ug/ml by broth microdilution method"}, "[19]": {"tested_on": "Streptococcus parasanguinis", "experiment": "Antimicrobial activity against viridans group Streptococcus parasanguis at 0.5 ug/ml by broth microdilution method"}, "Streptococcus equinus": {"tested_on": "Streptococcus equinus", "experiment": "Antimicrobial activity against viridans group Streptococcus bovis at 0.5 ug/ml by broth microdilution method"}, "Corynebacterium sp.": {"tested_on": "Corynebacterium sp.", "experiment": "Antimicrobial activity against Corynebacterium spp. by broth microdilution method"}, "[20]": {"tested_on": "Streptococcus vestibularis", "experiment": "Antimicrobial activity against viridans group Streptococcus vestibularis at <= 0.06 ug/ml by broth microdilution method"}, "Streptococcus": {"tested_on": "Streptococcus", "experiment": "Antimicrobial activity against beta hemolytic Streptococci group G at 0.25 ug/ml by broth microdilution method"}, "Streptococcus salivarius [21]": {"tested_on": "Streptococcus salivarius", "experiment": "Antimicrobial activity against viridans group Streptococcus salivarius at 0.5 ug/ml by broth microdilution method"}, "Listeria monocytogenes [22]": {"tested_on": "Listeria monocytogenes", "experiment": "Antimicrobial activity against Listeria monocytogenes at 1 ug/ml by broth microdilution method"}, "Bacillus sp. [23]": {"tested_on": "Bacillus sp.", "experiment": "Antimicrobial activity against Bacillus spp. at 0.5 ug/ml by broth microdilution method", "settings": "Bacillus sp. (in: firmicutes)"}, "[24]": {"tested_on": "Streptococcus vestibularis", "experiment": "Antimicrobial activity against viridans group Streptococcus vestibularis at 1 ug/ml by broth microdilution method"}, "Bacillus sp. [25]": {"tested_on": "Bacillus sp.", "experiment": "Antimicrobial activity against Bacillus spp. at <= 0.06 ug/ml by broth microdilution method"}, "Enterococcus gallinarum [26]": {"tested_on": "Enterococcus gallinarum", "experiment": "Antimicrobial activity against Enterococcus gallinarum at 0.5 ug/ml by broth microdilution method"}, "Streptococcus gordonii": {"tested_on": "Streptococcus gordonii", "experiment": "Antimicrobial activity against viridans group Streptococcus gordonii at 0.12 ug/ml by broth microdilution method"}, "Corynebacterium striatum": {"tested_on": "Corynebacterium striatum", "experiment": "Antimicrobial activity against Corynebacterium striatum at 0.5 ug/ml by broth microdilution method"}}}
{"smiles": "CC(=O)NC[C@H]1CN(c2ccc(N3CCOCC3)c(F)c2)C(=O)O1", "note": "[LINEZOLID]", "values": [{"measurement": "inhibition at 0.12 µg/mL", "setting": "Streptococcus sanguinis [1]", "value": 0.7, "unit": "%"}, {"measurement": "MIC50", "setting": "Streptococcus salivarius [2]", "value": 1, "unit": "µg/mL"}, {"measurement": "MIC90", "setting": "Streptococcus salivarius [2]", "value": 1, "unit": "µg/mL"}, {"measurement": "inhibition at 0.5 µg/mL", "setting": "[3]", "value": 36.4, "unit": "%"}, {"measurement": "Inhibition", "setting": "Enterococcus raffinosus", "value": 0, "unit": "%"}, {"measurement": "Inhibition", "setting": "Streptococcus oralis [4]", "value": 0.7, "unit": "%"}, {"measurement": "Inhibition", "setting": "Rothia mucilaginosa [5]", "value": 0, "unit": "%"}, {"measurement": "inhibition at 0.25 µg/mL", "setting": "Listeria monocytogenes [6]", "value": 0, "unit": "%"}, {"measurement": "inhibition at 1 µg/mL", "setting": "Enterococcus avium", "value": 52.6, "unit": "%"}, {"measurement": "inhibition at 0.12 µg/mL", "setting": "Streptococcus mitis", "value": 1.2, "unit": "%"}, {"measurement": "MIC50", "setting": "Streptococcus sanguinis [7]", "value": 1, "unit": "µg/mL"}, {"measurement": "MIC90", "setting": "Streptococcus sanguinis [7]", "value": 1, "unit": "µg/mL"}, {"measurement": "inhibition at 0.5 µg/mL", "setting": "Streptococcus oralis [8]", "value": 34.5, "unit": "%"}, {"measurement": "Inhibition", "setting": "[9]", "value": 0, "unit": "%"}, {"measurement": "inhibition at 0.5 µg/mL", "setting": "Rothia mucilaginosa [10]", "value": 83.3, "unit": "%"}, {"measurement": "inhibition at 0.12 µg/mL", "setting": "Enterococcus hirae [11]", "value": 0, "unit": "%"}, {"measurement": "inhibition at 0.25 µg/mL", "setting": "Streptococcus oralis [12]", "value": 3.6, "unit": "%"}, {"measurement": "inhibition at 0.12 µg/mL", "setting": "Streptococcus salivarius [13]", "value": 1.1, "unit": "%"}, {"measurement": "Inhibition", "setting": "Enterococcus gallinarum [14]", "value": 0, "unit": "%"}, {"measurement": "inhibition at 0.12 µg/mL", "setting": "[15]", "value": 27.3, "unit": "%"}, {"measurement": "inhibition at 0.25 µg/mL", "setting": "Aerococcus", "value": 4.5, "unit": "%"}, {"measurement": "Inhibition", "setting": "Streptococcus sanguinis [16]", "value": 0, "unit": "%"}, {"measurement": "inhibition at 0.5 µg/mL", "setting": "Enterococcus hirae [17]", "value": 0, "unit": "%"}, {"measurement": "inhibition at 0.12 µg/mL", "setting": "Rothia mucilaginosa [18]", "value": 5.6, "unit": "%"}, {"measurement": "inhibition at 0.5 µg/mL", "setting": "[19]", "value": 57.1, "unit": "%"}, {"measurement": "inhibition at 0.5 µg/mL", "setting": "Streptococcus equinus", "value": 23.8, "unit": "%"}, {"measurement": "MIC50", "setting": "Corynebacterium sp.", "value": 0.25, "unit": "µg/mL"}, {"measurement": "MIC90", "setting": "Corynebacterium sp.", "value": 0.5, "unit": "µg/mL"}, {"measurement": "Inhibition", "setting": "[20]", "value": 0, "unit": "%"}, {"measurement": "inhibition at 0.25 µg/mL", "setting": "Streptococcus", "value": 0.8, "unit": "%"}, {"measurement": "inhibition at 0.5 µg/mL", "setting": "Streptococcus salivarius [21]", "value": 46.2, "unit": "%"}, {"measurement": "inhibition at 1 µg/mL", "setting": "Listeria monocytogenes [22]", "value": 29.2, "unit": "%"}, {"measurement": "inhibition at 0.5 µg/mL", "setting": "Bacillus sp. [23]", "value": 31.7, "unit": "%"}, {"measurement": "inhibition at 1 µg/mL", "setting": "[24]", "value": 100, "unit": "%"}, {"measurement": "Inhibition", "setting": "Bacillus sp. [25]", "value": 0.7, "unit": "%"}, {"measurement": "inhibition at 0.5 µg/mL", "setting": "Enterococcus gallinarum [26]", "value": 1.7, "unit": "%"}, {"measurement": "inhibition at 0.12 µg/mL", "setting": "Streptococcus gordonii", "value": 0, "unit": "%"}, {"measurement": "inhibition at 0.5 µg/mL", "setting": "Corynebacterium striatum", "value": 100, "unit": "%"}]}
